Laboratory results: the supplement of paper PMC10949913

Key:
Conditions in all cases: 48 h
[1] = system: CU-ACC2; test: AC50 viability; higher = less potent
How it was run: (§1)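 Concentration-response curves were fitted to obtain AC50 and area under the curve, keeping inhibitory or non-responding curve classes only. Data came from CellTiter-Glo luminescence, normalised per plate to vehicle and empty-well controls, in three adrenocortical carcinoma cell lines. These were treated in 1,536-well plates with library compounds at 11 concentrations and read after 48 h.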

[2] = system: CU-ACC2; test: area under concentration-response curve (viability) (AUC (a.u.)); higher = less active
How it was run: as §1

[3] = system: CU-ACC1; test: as above
How it was run: as §1

[4] = system: CU-ACC1; test: AC50 viability; higher = less potent
How it was run: as §1

[5] = system: NCI-H295R; test: AC50 viability; higher = less potent
How it was run: as §1

[6] = system: NCI-H295R; test: area under concentration-response curve (viability) (AUC (a.u.)); higher = less active
How it was run: as §1

| Compound | AC50 viability [1] | area under concentration-response curve [2] | area under concentration-response curve [3] | AC50 viability [4] | AC50 viability [5] | area under concentration-response curve [6] |
| --- | --- | --- | --- | --- | --- | --- |
| FC1=CC2=C3[N](CCN(CC3=C1)C(=O)N4CCCCC4)C=C2C/5=C(C(=O)NC5=O)\C6=CN=C7C=CC=C[N]67 | 18.6 µM | 549 | – | – | – | – |
| COc1cc2nc(-c3ccc(N4CCN(C)CC4)cc3)nc(NCCN3CCOCC3)c2cc1OC | 3.72 µM | 397 | – | – | – | – |
| N#CCNC(=O)c1ccc(-c2ccnc(Nc3ccc(N4CCOCC4)cc3)n2)cc1 | 14.8 µM | 514 | – | – | – | – |
| O=C(Nc1cc(Cl)cc2c1[nH]c1cnccc12)c1cccnc1 | 0.182 µM | 402 | – | – | – | – |
| Cc1cccc(-c2[nH]c(C(C)(C)C)nc2-c2ccc3nccnc3c2)n1 | 0.263 µM | 331 | 293 | – | – | – |
| CC#CC(=O)N1CC[C@@H](n2c(=O)n(-c3ccc(Oc4ccccc4)cc3)c3c(N)ncnc32)C1 | 13.2 µM | 428 | 425 | – | – | – |
| CNC(=O)c1cccc2cc(Oc3ccnc4cc(OCC5(N)CC5)c(OC)cc34)ccc12 | 1.66 µM | 305 | 356 | – | – | – |
| C=CC[C@@H]1/C=C(\C)C[C@H](C)C[C@H](OC)[C@H]2O[C@@](O)(C(=O)C(=O)N3CCCC[C@H]3C(=O)O[C@H](/C(C)=C/[C@@H]3CC[C@@H](O)[C@H](OC)C3)[C@H](C)[C@@H](O)CC1=O)[C@H](C)C[C@@H]2OC | 18.6 µM | 390 | 383 | – | – | – |
| C=C(C)[C@@H]1CCC(C)=C[C@H]1c1c(O)cc(CCCCC)cc1O | 18.6 µM | 489 | 467 | – | – | – |
| OCc1ccc(-c2ccc(-c3ccc(CO)s3)o2)s1 | 37.2 µM | 532 | 507 | – | – | – |
| Cc1cnc(C(=O)NCCc2ccc([S+](=O)([O-])NC(=O)NC3CCCCC3)cc2)cn1 | 33.2 µM | 404 | 355 | – | – | – |
| CC(C)n1cnc2c(NCCc3ccc(O)cc3)nc(-c3csc4ccccc34)nc21 | 9.34 µM | 325 | 335 | – | – | – |
| CCNC1(C(N)=O)CCN(c2ncnc3c2nc(-c2ccccc2Cl)n3-c2ccc(Cl)cc2)CC1 | 0.295 µM | 330 | – | – | – | – |
| CONC(=O)c1ccccc1Nc1cc(Nc2cc(C)nn2C(C)C)ncc1Cl | 16.6 µM | 459 | 455 | – | – | – |
| CN(C)c1ccc(Nc2nc(N)n(C(=O)c3c(F)cccc3F)n2)cc1 | 16.6 µM | 553 | – | – | – | – |
| CN1CCN(CC1)\C2=N\C3=C(NC4=C2C=CC=C4)C=CC(=C3)Cl | 33.2 µM | 398 | – | – | – | – |
| [2H]C([2H])([2H])C(O)([C@@H](C)/C=C/[C@@H](C)[C@H]1CC[C@H]2/C(=C/C=C3C[C@@H](O)C[C@H](O)C3)CCC[C@]12C)C([2H])([2H])[2H] | 0.235 µM | 309 | 347 | – | – | – |
| C[C@@H](N)c1ccc(C(=O)Nc2ccnc3[nH]ccc23)cc1 | 2.63 µM | 297 | 349 | – | – | – |
| CO[C@@H]1C(N(C)C(=O)c2ccccc2)C[C@H]2O[C@]1(C)n1c3ccccc3c3c4c(c5c6ccccc6n2c5c31)C(=O)NC4=O (stereo not given in full) | 0.186 µM | 286 | 362 | – | – | – |
| O=C(Nc1ccc([S+](=O)([O-])N2CCOCC2)cc1)c1cc(Cl)ccc1N[S+](=O)([O-])c1ccc(Cl)s1 | 18.6 µM | 530 | 481 | – | – | – |
| Clc1ccc(C(Cn2ccnc2)OCc2ccc(Sc3ccccc3)cc2)c(Cl)c1 (stereo not given) | 23.5 µM | 528 | – | – | – | – |
| CN(C)c1ccc2nc3ccc(N(C)C)cc3[s+]c2c1.[Cl-] | 20.9 µM | 482 | – | – | – | – |
| CCOC(=O)c1ccnc(CNCC(=O)N(CC)CCN(C)C)c1 | 0.661 µM | 339 | 338 | – | – | – |
| C[S+](=O)([O-])c1cccc(CNc2nc(Nc3ccc4c(c3)CCC(=O)N4)ncc2C(F)(F)F)c1 | 23.5 µM | 467 | – | – | – | – |
| C[C@H](NC(=O)[C@@H]1C[C@@H](O)CN1C(=O)[C@@H](NC(=O)COCCCOCCNC(=O)C[C@@H]2\N=C(C3=CC=C(Cl)C=C3)/C4=C(SC(=C4C)C)[N]5C(=NN=C25)C)C(C)(C)C)C6=CC=C(C=C6)C7=C(C)N=CS7 | 8.33 µM | 478 | 474 | – | – | – |

| Compound | AC50 viability [1] | area under concentration-response curve [2] | area under concentration-response curve [3] | AC50 viability [4] | AC50 viability [5] | area under concentration-response curve [6] |
| --- | --- | --- | --- | --- | --- | --- |
| O=C(O)[C@H](Cc1c[nH]c2ccccc12)N1C(=O)c2ccccc2C1=O | 37.2 µM | 338 | – | – | – | – |
| CCN1C(=O)\C(=C/C2=CN=C(NCCC3CCN(C)CC3)N=C12)C4=CC=C(C=C4Cl)C5=CN=CC(=N5)C | 2.63 µM | 624 | 645 | – | – | – |
| CNCc1ccc(-c2[nH]c3cc(F)cc4c3c2CCNC4=O)cc1 | 26.3 µM | 495 | 416 | – | – | – |
| C=CC(=O)Nc1cccc(C)c1Nc1ncc2cc(-c3c(Cl)c(OC)cc(OC)c3Cl)ccc2n1 | 6.61 µM | 475 | – | – | – | – |
| Cc1[nH]c(/C=C2\C(=O)Nc3ccc(F)cc32)c(C)c1C(=O)NCCN1CCCC1 | 14.4 µM | 525 | 522 | – | – | – |
| COc1c(C)cnc(Cn2cnc3c(Cl)nc(N)nc32)c1C | 0.661 µM | 378 | 361 | – | – | – |
| COc1ccc2c(c1)[C@]1(C[C@H]1c1ccc3c(/C=C/c4ccc(CN5C[C@@H](C)O[C@@H](C)C5)cc4)n[nH]c3c1)C(=O)N2 | 1.86 µM | 344 | 384 | – | – | – |
| CC1(C)C(N(O)C(=O)Nc2ccc(Cl)cc2)N(c2ccc(Cl)cc2)C(=O)N1CC(=O)N/N=C/C=C/c1ccc([N+](=O)[O-])o1 (stereo not given) | 23.5 µM | 561 | 511 | – | – | – |
| COc1cc(Nc2cnc(C#N)c(O[C@H](C)CN(C)C)n2)ncc1-c1cnn(C)c1 | 10.5 µM | 399 | 312 | – | – | – |
| Cc1c(NC(=O)OC[C@@H]2COCCN2)cn2ncnc(Nc3ccc4c(cnn4Cc4cccc(F)c4)c3)c12 | 18.6 µM | 544 | 393 | – | – | – |
| CC[C@H](CO)Nc1nc(NCc2ccccc2)c2ncn(C(C)C)c2n1 | 20.9 µM | 582 | – | – | – | – |
| COc1c(Cl)cc2c([nH]c3cnccc32)c1NC(=O)c1cccnc1C | 7.42 µM | 374 | – | – | – | – |
| C\C1=C(\[C@@H](OC2=C1C=CC(=C2)O)C3=CC=C(OCCN4CCCCC4)C=C3)C5=CC=C(O)C=C5 | 0.295 µM | 333 | 296 | – | – | – |
| Fc1ccc(-c2nc(-c3ccccc3F)[nH]c2-c2ccncc2)cc1 | 33.2 µM | 399 | 336 | – | – | – |
| CN1CCN(CCOc2cc(OC3CCOCC3)c3c(Nc4c(Cl)ccc5c4OCO5)ncnc3c2)CC1 | 23.5 µM | 548 | 547 | – | – | – |
| O=C(CCCCCCNC(=O)c1cnc(N(c2ccccc2)c2ccccc2Cl)nc1)NO | 11.8 µM | 502 | 464 | – | – | – |
| CN1CCN(c2cccc(Nc3nc4c(-c5ccc([S+](C)(=O)[O-])cc5)cccn4n3)c2)CC1 | 20.9 µM | 552 | – | – | – | – |
| CC1(C)CC[C@@]2(CC[C@]3(C)[C@@H]([C@@H]2C1)C(=O)\C=C\4[C@@]3(C)CC[C@H]5C(C)(C)C(=O)\C(=C/[C@]45C)C#N)NC(=O)C(C)(F)F | 23.5 µM | 606 | – | – | – | – |
| CCOc1cc2ncc(C#N)c(Nc3ccc(F)c(Cl)c3)c2cc1NC(=O)/C=C/CN(C)C | 8.33 µM | 419 | – | – | – | – |
| CCC[C@H](NC(=O)[C@@H]1[C@H]2CCC[C@H]2CN1C(=O)[C@@H](NC(=O)[C@@H](NC(=O)c1cnccn1)C1CCCCC1)C(C)(C)C)C(=O)C(=O)NC1CC1 | – | 299 | 333 | 0.00105 µM | 33.2 µM | 285 |
| CC(C)C[C@H](NC(=O)[C@H](Cc1ccccc1)NC(=O)c1cnccn1)B(O)O | – | 327 | 290 | 0.0372 µM | 0.0263 µM | 345 |
| CCOc1cc(CC(=O)N[C@@H](CC(C)C)c2ccccc2N2CCCCC2)ccc1C(=O)O | – | 240 | 221 | 0.0059 µM | 5.25 µM | 188 |
| CCC[S+](=O)([O-])c1nc(NC2CC2)cc(-c2ccc3c(ccn3C3CC(C)(C)NC(C)(C)C3)c2)n1 | – | 580 | 490 | 3.93 µM | 3.12 µM | 530 |
| FC(F)c1nc2ccccc2n1-c1nc(N2CCOCC2)nc(N2CCOCC2)n1 | – | 487 | 413 | 0.59 µM | 0.934 µM | 399 |
